# Test results: patent publication US10294234B2, “HIV inhibitor compounds” (priority 2017, dated 2019)
# Read-outs that look alike come from different tables or passages of the source.
# Key:
# [1] = Protocol: Liver Microsomal Stability Protocol
# Test compounds and one control compound (verapamil) were tested in 3 different species in duplicate sets.
# Test compound concentration: 1 uM; Protein concentration: 0.5 mg/mL (for dog, rat, and human liver microsomes); Cofactor: NADPH-Regenerating system (NRS) solution; Time-points: 2, 12, 25, 45, and 65 minutes.
# Reaction composition (in each incubation well) contains:
# After plates were vortexed, they were centrifuged for 30 minutes to remove proteins. About 100 μL supernatant was removed to a new plate and diluted with 150 μL water. About 20 μL of the mixture was injected into LC/MS/MS system to monitor the compound's response. In vitro measured t1/2 was used to calculate Clint values.
# [2] = tested on: HIV-1 (IIIB) in MT-4 cells; assay: MT-4 HIV assay; type: cell-based
# Method in brief: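 MT-4 cells infected with HIV-1 IIIB (1:250 stock dilution) were incubated with 1:3 serially diluted compounds in RPMI with 10% FBS for 5 days at 37 °C. Cell Titer Glo luminescence was the readout. Plates included mock-infected wells, no-drug wells and 5 uM AZT controls.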
# [3] = Human immunodeficiency virus 1, MT4, 120 h, HIV-1 (IIIB), MT-4 cells, 5 days, Cell Titer Glo, read-out: EC50
Molecule,"EC50 [2, 3] [nM]","Human Pred Cl. ([1]; human, microsomes) [L/H/kg]","Rat. Pred. Cl. ([1]; rat, microsomes) [L/H/kg]",also measured
"COC(=O)N[C@H](C(=O)N[C@@H](Cc1ccc(C#Cc2ccc(N3CCN(C4COC4)CC3)nc2)cc1)[C@@H](O)CN(Cc1c(F)cc(-c2cc(F)ccn2)cc1F)NC(=O)[C@@H](NC(=O)OC)C(C)(C)C(F)(F)F)C(C)(C)C(F)(F)F [Example 98, Methyl ((5S,8S,9S,14S)-11-(2,6-difluoro-4-(4-fluoropyridin-2-yl)benzyl)-16,16,16-trifluoro-9-hydroxy-15,15-dimethyl-8-(4-((6-(4-(oxetan-3-yl)piperazin-1-yl)pyridin-3-yl)ethynyl)benzyl)-3,6,13-trioxo-5-(1,1,1-trifluoro-2-methylpropan-2-yl)-2-oxa-4,7,11,12-tetraazahexadecan-14-yl)carbamate]",4.97,–,–,"Human Pred Cl. ([1]; human liver microsomes 0.5 mg/mL, 1 uM compound, NADPH): 0.26 L/H/kg; Rat. Pred. Cl. ([1]; rat liver microsomes 0.5 mg/mL, 1 uM compound, NADPH): 0.65 L/H/kg"
"COC(=O)N[C@H](C(=O)N[C@@H](Cc1ccc(C#Cc2ccc(N3CC4CC(C3)N4C3COC3)nc2)cc1)[C@@H](O)CN(Cc1c(F)cc(-c2ccn(C3CC3)n2)cc1F)NC(=O)[C@@H](NC(=O)OC)C(C)(C)C(F)(F)F)C(C)(C)C(F)(F)F [Example 40, Methyl ((5S,8S,9S,14S)-11-(4-(1-cyclopropyl-1H-pyrazol-3-yl)-2,6-difluorobenzyl)-16,16,16-trifluoro-9-hydroxy-15,15-dimethyl-8-(4-((6-(6-(oxetan-3-yl)-3,6-diazabicyclo[3.1.1]heptan-3-yl)pyridin-3-yl)ethynyl)benzyl)-3,6,13-trioxo-5-(1,1,1-trifluoro-2-methylpropan-2-yl)-2-oxa-4,7,11,12-tetraazahexadecan-14-yl)carbamate]",3.89,0.13,0.5,–
"COC(=O)N[C@H](C(=O)N[C@@H](Cc1ccc(C#Cc2cnc(N3CC4CCC(C3)N4C3COC3)nc2)cc1)[C@@H](O)CN(Cc1c(F)cc(-c2cn(C(F)F)nn2)cc1F)NC(=O)[C@@H](NC(=O)OC)C(C)(C)C(F)(F)F)C(C)(C)C(F)(F)F [Example 219, Methyl ((5S,8S,9S,14S)-11-(4-(1-(difluoromethyl)-1H-1,2,3-triazol-4-yl)-2,6-difluorobenzyl)-16,16,16-trifluoro-9-hydroxy-15,15-dimethyl-8-(4-((2-(8-(oxetan-3-yl)-3,8-diazabicyclo[3.2.1]octan-3-yl)pyrimidin-5-yl)ethynyl)benzyl)-3,6,13-trioxo-5-(1,1,1-trifluoro-2-methylpropan-2-yl)-2-oxa-4,7,11,12-tetraazahexadecan-14-yl)carbamate]",4.1,<0.11,0.24,"Dog. Pred. Cl. ([1]; dog, microsomes): 0.19 L/H/kg"
"COC(=O)N[C@H](C(=O)N[C@@H](Cc1ccc(-c2cnc(N3CC4CCC(C3)N4C3COC3)nc2)cc1)[C@@H](O)CN(Cc1c(F)cc(-c2ncccn2)cc1F)NC(=O)[C@@H](NC(=O)OC)C(C)(C)C(F)(F)F)C(C)(C)C(F)(F)F [Example 201, Methyl ((5S,8S,9S,14S)-11-(2,6-difluoro-4-(pyrimidin-2-yl)benzyl)-16,16,16-trifluoro-9-hydroxy-15,15-dimethyl-8-(4-(2-(8-(oxetan-3-yl)-3,8-diazabicyclo [3.2.1]octan-3-yl)pyrimidin-5-yl)benzyl)-3,6,13-trioxo-5-(1,1,1-trifluoro-2-methylpropan-2-yl)-2-oxa-4,7,11,12-tetraazahexadecan-14-yl)carbamate]",2.67,0.27,0.49,–
"COC(=O)N[C@H](C(=O)NN(Cc1c(F)cc(-c2cnn(C(F)F)c2)cc1F)C[C@H](O)[C@H](Cc1ccc(C#Cc2ccc(N3CC4CCC(C3)N4C3COC3)nc2)cc1)NC(=O)[C@@H](NC(=O)OC)C(C)(C)C(F)(F)F)C(C)(C)C [Example 86, Methyl ((5S,8S,9S,14S)-11-(4-(1-(difluoromethyl)-1H-pyrazol-4-yl)-2,6-difluorobenzyl)-9-hydroxy-15,15-dimethyl-8-(4-((6-(8-(oxetan-3-yl)-3,8-diazabicyclo[3.2.1]octan-3-yl)pyridin-3-yl)ethynyl)benzyl)-3,6,13-trioxo-5-(1,1,1-trifluoro-2-methylpropan-2-yl)-2-oxa-4,7,11,12-tetraazahexadecan-14-yl)carbamate]",2.61,<0.11,<0.18,–
"COC(=O)N[C@H](C(=O)N[C@@H](Cc1ccc(C#Cc2ccc(N3CC4CCC(C3)N4C3COC3)nc2)cc1)[C@@H](O)CN(Cc1c(F)cc(C2CCOCC2)cc1F)NC(=O)[C@@H](NC(=O)OC)C(C)(C)C(F)(F)F)C(C)(C)C(F)(F)F [Example 82, Methyl ((5S,8S,9S,14S)-11-(2,6-difluoro-4-(tetrahydro-2H-pyran-4-yl)benzyl)-16,16,16-trifluoro-9-hydroxy-15,15-dimethyl-8-(4-((6-(8-(oxetan-3-yl)-3,8-diazabicyclo[3.2.1]octan-3-yl)pyridin-3-yl)ethynyl)benzyl)-3,6,13-trioxo-5-(1,1,1-trifluoro-2-methylpropan-2-yl)-2-oxa-4,7,11,12-tetraazahexadecan-14-yl)carbamate]",4.4,0.82,0.44,–
"Methyl ((5S,8S,9S,14S)-11-(4-(1-(difluoromethyl)-1H-pyrazol-4-yl)-2,6-difluorobenzyl)-16,16,16-trifluoro-9-hydroxy-15,15-dimethyl-8-(4-((6-(4-(oxetan-3-yl)piperazin-1-yl)pyridin-3-yl)ethynyl)benzyl)-3,6,13-trioxo-5-(1,1-trifluoro-2-methylpropan-2-yl)-2-oxa-4,7,11,12-tetraazahexadecan-14-yl)carbamate [Example 116]",–,0.19,0.39,"EC50 ([2]; HIV-1 (IIIB), MT-4 cells, 5 days, Cell Titer Glo, read-out: EC50): 2.79 nM"
"COC(=O)N[C@H](C(=O)N[C@@H](Cc1ccc(-c2ccc(N3CC4CCC(C3)N4C3COC3)nc2)cc1)[C@@H](O)CN(Cc1c(F)cc(-c2nnc(C3CC3)o2)cc1F)NC(=O)[C@@H](NC(=O)OC)C(C)(C)C(F)(F)F)C(C)(C)C(F)(F)F [Example 205, Methyl ((5S,8S,9S,14S)-11-(4-(5-cyclopropyl-1,3,4-oxadiazol-2-yl)-2,6-difluorobenzyl)-16,16,16-trifluoro-9-hydroxy-15,15-dimethyl-8-(4-(6-(8-(oxetan-3-yl)-3,8-diazabicyclo[3.2.1]octan-3-yl)pyridin-3-yl)benzyl)-3,6,13-trioxo-5-(1,1,1-trifluoro-2-methylpropan-2-yl)-2-oxa-4,7,11,12-tetraazahexadecan-14-yl)carbamate]",5.25,–,–,–
"COC(=O)N[C@H](C(=O)N[C@@H](Cc1ccc(C#Cc2cnc(N3CC4CCC(C3)N4)nc2)cc1)[C@@H](O)CN(Cc1c(F)cc(-c2ccn(C(F)F)n2)cc1F)NC(=O)[C@@H](NC(=O)OC)C(C)(C)C(F)(F)F)C(C)(C)C(F)(F)F [Example 172, Methyl ((5S,8S,9S,14S)-8-(4-((2-(3,8-diazabicyclo[3.2.1]octan-3-yl)pyrimidin-5-yl)ethynyl)benzyl)-11-(4-(1-(difluoromethyl)-1H-pyrazol-3-yl)-2,6-difluorobenzyl)-16,16,16-trifluoro-9-hydroxy-15,15-dimethyl-3,6,13-trioxo-5-(1,1,1-trifluoro-2-methylpropan-2-yl)-2-oxa-4,7,11,12-tetraazahexadecan-14-yl)carbamate]",5.86,–,–,–
"COC(=O)N[C@H](C(=O)N[C@@H](Cc1ccc(C#Cc2cnc(N3CC4CCC(C3)N4C3COC3)cc2C)cc1)[C@@H](O)CN(Cc1c(F)cc(-c2ccn(C(F)F)n2)cc1F)NC(=O)[C@@H](NC(=O)OC)C(C)(C)C(F)(F)F)C(C)(C)C(F)(F)F [Example 151, Methyl ((5S,8S,9S,14S)-11-(4-(1-(difluoromethyl)-1H-pyrazol-3-yl)-2,6-difluorobenzyl)-16,16,16-trifluoro-9-hydroxy-15,15-dimethyl-8-(4-((4-methyl-6-(8-(oxetan-3-yl)-3,8-diazabicyclo[3.2.1]octan-3-yl)pyridin-3-yl)ethynyl)benzyl)-3,6,13-trioxo-5-(1,1,1-trifluoro-2-methylpropan-2-yl)-2-oxa-4,7,11,12-tetraazahexadecan-14-yl)carbamate]",4.82,–,–,–
"COC(=O)N[C@H](C(=O)N[C@@H](Cc1ccc(C#Cc2ccc(N3CC4CCC(C3)N4C(=O)N(C)C)nc2)cc1)[C@@H](O)CN(Cc1c(F)cc(-c2cnn(C(F)F)c2)cc1F)NC(=O)[C@@H](NC(=O)OC)C(C)(C)C(F)(F)F)C(C)(C)C(F)(F)F [Example 17, Methyl ((5S,8S,9S,14S)-11-(4-(1-(difluoromethyl)-1H-pyrazol-4-yl)-2,6-difluorobenzyl)-8-(4-((6-(8-(dimethylcarbamoyl)-3,8-diazabicyclo[3.2.1]octan-3-yl)pyridin-3-yl)ethynyl)benzyl)-16,16,16-trifluoro-9-hydroxy-15,15-dimethyl-3,6,13-trioxo-5-(1,1,1-trifluoro-2-methylpropan-2-yl)-2-oxa-4,7,11,12-tetraazahexadecan-14-yl)carbamate]",–,–,–,"EC50 ([2]; Human immunodeficiency virus 1, MT4, 120 h): 7.24 nM"
